# “Also recorded” adds a separate entry of the source.
# What was measured:
# [1] = Water solubility of Form A; type: physicochemical; conditions: pH 7.06, water, room temperature, pH of 7.06
# From the text: The trihydrate form was obtained by slurrying Form A in DI water over 4 days (RT), centrifuging the slurry to remove supernatant and then drying the solid at RT for a few hours.
# [2] = Water sorption analysis (dynamic vapor sorption); type: physicochemical
# Method: About 5-6 mg of powder sample was placed in the sample pan of an automated water sorption analyzer (Q5000SA, TA instruments, New Castle, DE) at 25° C. and a nitrogen flow rate of 200 mL/min. The sample was initially “dried” at 0% RH for a total of 600 minutes (at 60 followed by 25° C.), following which it was subjected to progressive increase in RH from 0-90%, in increments of 10% with a dwell time of 240 minutes at every RH with a dm/dt window of 0.001% for 30 minutes. This was followed by a progressive decrease in RH in decrements of 10% back to 0% RH, using the same protocol. For hydrate samples, the process was reversed where the starting RH was maintained at 90%, followed by a progressive step-wise lowering to 0%, followed by similar step wise increase back to 90%. This was done to ensure that the water of hydration is retained at the start of the experiment.
# [3] = Slurry of Form A in DI water, anhydrate to hydrate conversion by XRPD; type: physicochemical
# Method: Conversion of anhydrous Form A to Form B was investigated. […] To check for hydrate formation, Form A was slurried in DI water for 4 days (RT). Form conversion (anhydrate to hydrate) was initiated at 12 hours and was complete within 4 days, as detected by XRPD with reference to Form B. Anhydrate (Form A) to hydrate (Form B) conversion was measured upon slurrying in DI water for 4 days. […] Form conversion is complete by 96 hrs.
# [4] = Slurry bridging of Forms A and D (1:1) in n-propanol; type: physicochemical
# Method: Based on Burger and Ramberger's “Heat of Fusion Rule” of polymorphism, two polymorphs are considered to be monotropic if the one with the higher melting point has a greater heat of fusion as well (Burger and Ramberger, Mikrochimica Acta (1979), 256). […] To confirm this further, a slurry bridging experiment was conducted at RT in n-propanol, which had previously yielded Form D from the crude API.
# (§1) Deionized (DI) Water-ethanol (absolute alcohol) mixtures of different compositions ranging from 0-100% water were prepared and their water activities were measured using a water activity meter. Slurry experiments were set up at RT wherein 1:1 mixtures of trihydrate and anhydrous forms of GDC-0077 (40 mg total) were added to these solvent mixtures (1.5 mL liquid) and agitated at RT over 4 days. After 4 days, the samples were aliquoted and centrifuged. The solids were analyzed by XRPD and the supernatant was analyzed for water activity. 1:1 mixture of Forms A and D was slurried in in-propanol overnight at RT. The slurry was centrifuged and the solid form was analyzed by XRPD.
# [5] = Stability study of milled Form A in open vials; type: physicochemical; conditions: up to 8 weeks
# Method: (§2) Milling of Form A may optimize certain PK properties. A scaled up Form A lot was milled and also placed on stability studies (40° C./75% RH, 25° C./60% RH, open vials). Three more lots were also milled which behaved similarly upon milling. A milled representative lot was characterized and the physical form was determined. This lot was slurried in 100% ethanol to obtain Form A and milled using a jet mill at for 3.5 hrs with 60 psi pressure. […] The particle size analysis (PSD) was determined to be D10=0.7 μm, D50=2.7 μm, D90=6.7 μm. Post milling, a portion of the API (Active Pharmaceutical Ingredient, i.e. GDC-0077) batch was placed on stability at 40° C./75% RH and 25° C./60% RH in open vials. Solid-state data was collected at 4 and 8 weeks to evaluate effect of temperature and humidity on the physical form. The milled and stability samples were characterized by XRPD, PLM, DSC, TGA, Water sorption analysis and surface area analysis. DSC runs were performed in the modulated mode using non-hermetically crimped pans, a heating rate of 1° C./min from 0-175° C., modulation amplitude of ±1° C. and a period of 60 seconds.
# [6] = Particle size distribution analysis (PSD); type: physicochemical
# Method: Particle size analysis was performed using a Malvern Mastersizer 2000 instrument equipped with a Hydros 2000SM wet dispersion attachment (Malvern Instruments Ltd., Malvern, UK). ˜30 mg of API was weighed into a vial and 1 mL of 0.1% Span 85 in heptane was added. The vial was sonicated for 5 seconds, about 0.3 mL was added to the sampler at a stir speed of 1500 rpm, and a PSD was performed at an obscuration of 10-20%. The sample was then sonicated for 10 more seconds (a total of 15 seconds), about 0.3 mL was added to the sampler, a PLM image was acquired, and PSD was performed. The same sample was then sonicated for another 15 seconds (a total of 30 seconds), about 0.3 mL was added, a PLM photo was taken and PSD was performed. From the sonication study, an appropriate sonication period was chosen. The PLM images and PSDs were used to determine how much sonication the sample needed to disperse clumps but prevent or minimize crystal fracturing. Three more samples, of ˜10 mg, were weighed into vials and 1 mL of 0.1% Span 85 in heptane was added. The samples were sonicated for the sonication period determined in the sonication study. The final PSD analysis was performed in triplicate using the predetermined sonication period. The instrument was rinsed twice with isopropyl alcohol (IPA) and once with heptane before being filled with 0.1% Span 85 in heptane for each sample. After the last sample had run, the instrument was rinsed with IPA once.
# [7] = Jet milling of Form A, physical form after size reduction; type: physicochemical; conditions: jet mill
# Method: as §2
# [8] = Isothermal TGA dehydration of Form B; type: physicochemical; conditions: TGA held at 60° C.
# Method: The desolvation behavior of Form B as well its ability to rehydrate was further characterized. […] As evident from the data, the hydrate dehydrates readily, losing almost all of its lattice water (12%) at 60° C. and rehydrates after 4 hours of equilibration which indicates easy passage of water in and out of the lattice. The water sorption desorption behavior of trihydrate Form B GDC-0077 at 25° C. is depicted in FIG. 10A. The dynamic vapor sorption experiment provides information about the dehydration behavior of Form B. Dehydration of Form B commences rapidly below 40% RH (desorption curve) and is complete by the time the sample is exposed to 0% RH. Although there is a hysteresis showing equilibrium lag, the anhydrous product rehydrates beyond 40% RH, equally readily. […] The trihydrate dehydrates in 2-3 steps whereas the anhydrate to hydrate formation occurs majorly in one step at >40% RH (25° C.).
# Isothermal experiments: In a thermogravimetric analyzer (Q500 TGA, TA instruments), 3-4 mg of GDC-0077 samples were heated in an open aluminum pan from RT to 60° C. at a heating rate of 10° C./min held isothermally at 60° C. overnight. Samples were then either analyzed by XRPD or left to equilibrate at RT for 4 hours in the sample pan and then rerun isothermally at 60° C. using the same experimental parameters as mentioned above.
# [9] = Slurry bridging of hydrate-anhydrate mixtures in ethanol-water mixtures, water activity; type: physicochemical; conditions: RT
# Method: as §1, with “XRPD. An Aqualab 4TEV (Decagon Devices, WA) was used as the water activity meter in the capacitance sensor mode to acquire data at 25±0.2° C. for solvent mixtures and slurry supernatants. Instrument was calibrated using vendor provided standards (saturated salt solutions) over the aw range of 0.25-1. All aw values are obtained after stabilization of three consecutive reads.” for “XRPD.”
# [10] = target: PI3K (Homo sapiens, UniProt P42336); conditions: WO 2017/001645, US 2017/0015678, AACR 2017; cited from earlier work
# PI3K, sequence (P42336 whole entry): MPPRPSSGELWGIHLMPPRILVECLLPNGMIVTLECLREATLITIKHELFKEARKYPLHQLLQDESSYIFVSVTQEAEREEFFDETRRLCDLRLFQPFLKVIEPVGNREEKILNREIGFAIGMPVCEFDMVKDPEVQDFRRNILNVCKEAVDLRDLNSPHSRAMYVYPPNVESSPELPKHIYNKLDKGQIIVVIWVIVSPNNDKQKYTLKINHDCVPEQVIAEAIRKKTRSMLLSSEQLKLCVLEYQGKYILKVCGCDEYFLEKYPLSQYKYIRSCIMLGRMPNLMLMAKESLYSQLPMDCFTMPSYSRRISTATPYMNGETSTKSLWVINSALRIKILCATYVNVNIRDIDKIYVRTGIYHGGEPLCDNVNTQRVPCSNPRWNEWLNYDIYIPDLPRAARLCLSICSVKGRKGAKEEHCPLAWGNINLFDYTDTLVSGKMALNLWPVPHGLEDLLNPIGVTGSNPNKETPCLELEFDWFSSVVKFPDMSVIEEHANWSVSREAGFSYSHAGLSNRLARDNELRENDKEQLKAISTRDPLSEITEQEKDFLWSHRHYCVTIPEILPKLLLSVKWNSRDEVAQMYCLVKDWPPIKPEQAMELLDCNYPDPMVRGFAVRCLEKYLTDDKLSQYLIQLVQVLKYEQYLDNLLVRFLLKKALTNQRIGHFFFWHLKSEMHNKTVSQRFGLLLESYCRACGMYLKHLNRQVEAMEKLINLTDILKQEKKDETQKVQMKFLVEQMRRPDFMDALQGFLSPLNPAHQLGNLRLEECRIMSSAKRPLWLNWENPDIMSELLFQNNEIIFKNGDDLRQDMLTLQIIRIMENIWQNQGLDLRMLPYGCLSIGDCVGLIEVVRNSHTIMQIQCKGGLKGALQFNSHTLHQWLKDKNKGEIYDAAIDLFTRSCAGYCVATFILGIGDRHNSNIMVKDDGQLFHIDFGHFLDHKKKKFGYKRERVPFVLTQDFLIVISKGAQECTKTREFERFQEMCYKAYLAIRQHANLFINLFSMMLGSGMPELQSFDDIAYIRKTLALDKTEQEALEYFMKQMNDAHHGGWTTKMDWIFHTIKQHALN
# PI3K, sequence (P27986 whole entry partner): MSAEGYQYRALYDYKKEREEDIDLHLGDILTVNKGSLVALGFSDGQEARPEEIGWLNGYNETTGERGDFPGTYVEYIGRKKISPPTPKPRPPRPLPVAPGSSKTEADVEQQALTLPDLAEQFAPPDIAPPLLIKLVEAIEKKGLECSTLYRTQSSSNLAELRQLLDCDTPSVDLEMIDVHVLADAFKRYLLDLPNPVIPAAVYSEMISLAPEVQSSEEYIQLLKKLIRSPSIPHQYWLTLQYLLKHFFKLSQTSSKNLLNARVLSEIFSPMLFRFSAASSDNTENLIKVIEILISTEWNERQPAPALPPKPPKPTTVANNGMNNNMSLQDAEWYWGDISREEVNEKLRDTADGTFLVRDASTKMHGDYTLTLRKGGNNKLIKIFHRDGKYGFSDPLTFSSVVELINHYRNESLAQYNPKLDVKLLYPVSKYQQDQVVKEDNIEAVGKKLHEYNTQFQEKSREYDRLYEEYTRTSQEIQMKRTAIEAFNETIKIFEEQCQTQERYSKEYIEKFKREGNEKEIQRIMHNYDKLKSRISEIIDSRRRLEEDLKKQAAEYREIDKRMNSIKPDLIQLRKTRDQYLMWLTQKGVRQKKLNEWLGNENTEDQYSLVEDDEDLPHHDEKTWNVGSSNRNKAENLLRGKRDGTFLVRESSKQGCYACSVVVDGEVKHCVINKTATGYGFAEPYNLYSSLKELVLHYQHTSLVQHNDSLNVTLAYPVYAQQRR
# [11] = Surface area analysis (BET); type: physicochemical; conditions: for BET Surface Area: Krypton gas adsorption
# Method: Surface area measurement was conducted using a Micromeritics ASAP 2460 with a Micromeritics Smart VacPrep attachment (Micromeritics Instrument Corp., GA). A sample of 500 mg-1 g was weighed into an empty ASAP 2460 tube and placed on the Smart VacPrep, degassed for 24 hours under ambient conditions and then exposed to Krypton gas adsorption at […] and 100 mm Hg hold pressure. An 11-point measurement was made in the relative pressure range of 0.050-0.300 and the data was analyzed using MicroActive software provided by the vendor.
# [12] = listed as printed without sonication time
# [13] = after jet milling 3.5 hrs, 60 psi
smiles,measurement,setting,value
"C[C@H](Nc1ccc2c(c1)OCCn1cc(N3C(=O)OC[C@H]3C(F)F)nc1-2)C(N)=O [Form A, (S)-2-((2-((S)-4-(difluoromethyl)-2-oxooxazolidin-3-yl)-5,6-dihydrobenzo[f]imidazo[1,2-d][1,4]oxazepin-9-yl)amino) propanamide]",solubility,[1],30.8 µg/mL
same,moisture uptake (water sorption),"[2]; 25° C., up to 90% RH",0.25 % w/w
same,moisture uptake (water sorption),"[2]; 25° C., up to 90% RH, listed as Form I",< 0.3 % w/w
same,time by which form conversion is complete,[3],≤ 96 h
same,time at which anhydrate to hydrate conversion was initiated,[3]; RT,12 h
same,time to complete anhydrate to hydrate conversion,[3]; RT,≤ 4 days
same,time within which anhydrate to hydrate conversion starts,[3]; hydrate marker peak by XRPD,≤ 12 h
same,relative thermodynamic stability of the forms,"[4]; Form A versus Form D, RT to 214° C.",thermodynamically stable form; also recorded: more stable form
same,physical form stability,[5]; 25° C./60% RH,remains stable
same,physical form stability,[5]; 40° C./75% RH,remains stable
same,D10,[6]; 5 sec sonication,3.24 μm
same,D50,[6]; 5 sec sonication,14.87 μm
same,D90,[6]; 5 sec sonication,40.92 μm
same,D[4.3],[6]; 5 sec sonication,19.09 μm
same,D10,[6]; 15 sec sonication,2.70 μm
same,D50,[6]; 15 sec sonication,10.93 μm
same,D90,[6]; 15 sec sonication,27.59 μm
same,D[4.3],[6]; 15 sec sonication,13.44 μm
same,D10,[6]; [12],4.76 μm
same,D50,[6]; [12],27.73 μm
same,D90,[6]; [12],208.16 μm
same,D[4.3],[6]; [12],74.60 μm
same,physical form upon milling,[7],remains stable
"C[C@H](Nc1ccc2c(c1)OCCn1cc(N3C(=O)OC[C@H]3C(F)F)nc1-2)C(N)=O [Form B, (S)-2-((2-((S)-4-(difluoromethyl)-2-oxooxazolidin-3-yl)-5,6-dihydrobenzo[f]imidazo[1,2-d][1,4]oxazepin-9-yl)amino) propanamide]",RH below which dehydration commences (desorption curve),[2]; 25° C.,below 40 % RH
same,RH range where intermediate dehydrated form is evident,"[2]; 25° C., desorption",20-50 % RH
same,RH beyond which the anhydrous product rehydrates,"[2]; 25° C., resorption",> 40 % RH
same,lattice water lost on isothermal dehydration,[8],12%
"C[C@H](Nc1ccc2c(c1)OCCn1cc(N3C(=O)OC[C@H]3C(F)F)nc1-2)C(N)=O [Form D, (S)-2-((2-((S)-4-(difluoromethyl)-2-oxooxazolidin-3-yl)-5,6-dihydrobenzo[f]imidazo[1,2-d][1,4]oxazepin-9-yl)amino) propanamide]",form conversion in slurry,"[4]; Forms A and D 1:1, n-propanol, RT, overnight",converts to Form A
"C[C@H](Nc1ccc2c(c1)OCCn1cc(N3C(=O)OC[C@H]3C(F)F)nc1-2)C(N)=O [GDC-0077, (S)-2-((2-((S)-4-(difluoromethyl)-2-oxooxazolidin-3-yl)-5,6-dihydrobenzo[f]imidazo[1,2-d][1,4]oxazepin-9-yl)amino) propanamide]",aw of anhydrate-hydrate equilibrium,[9],0.82-0.86
same,equilibrium RH (relative humidity) zone for the two forms,[9],82-86%
same,water content equivalent to equilibrium RH zone,[9],65-83 % w/w
same,PI3K activity,[10],potent
C[C@H](Nc1ccc2c(c1)OCCn1cc(N3C(=O)OC[C@H]3C(F)F)nc1-2)C(N)=O [Jet Milled],increase in moisture uptake compared to the unmilled material,[2]; water sorption profile,1 % w/w
same,D10,[6]; [13],0.7 μm
same,D50,[6]; [13],2.7 μm
same,D90,[6]; [13],6.7 μm
same,BET Surface Area,[11],6.68 ± 0.16 m2/g
same,BET Surface Area,[11]; listed as milled lot,6.68 m2/g
same,"surface area from sauter mean diameter (D3,2)",[11]; calculated from particle size,3.42 m2/g
same,increase in surface area upon milling,[11]; milled versus unmilled,10 ×
C[C@H](Nc1ccc2c(c1)OCCn1cc(N3C(=O)OC[C@H]3C(F)F)nc1-2)C(N)=O [Unmilled],weight gain (water sorption),[2]; up to 90% RH,0.25%
same,BET Surface Area,[11],0.78 ± 0.03 m2/g
same,BET Surface Area,[11]; listed as unmilled material,0.78 m2/g
